In patent US20130236473A1, “THERAPEUTIC AGENTS AND PROPHYLACTIC AGENTS FOR SYMPTOMS ACCOMPANYING AUTOIMMUNE DISEASES, INFLAMMATORY DISEASES, ALLERGY DISEASES AND ORGAN TRANSPLANTS” (OSAKA UNIVERSITY, priority 2010, published 2013):

Tested on: IL-6 amplifier
Experiment: Example 2: PI3 kinase inhibitors, mIL-6 protein production on IL-6 amplifier activation in BC-1 cells (ELISA)
Format: cell-based
Settings: 24 hours, conditions (a) to (d), 0 or 100 ng/ml mouse epiregulin, LY294002 0.1-10, PIK75 0.01-1.0 micromole/L
Experimental: 2×10^5 mouse BC-1 cells were cultured in an RPMI 1640 medium for 24 hours under each of the following conditions: • (a) in the presence of 10% FBS, • (b) with the addition of 50 ng/ml of hIL-6 protein and 50 ng/ml of hIL-6R protein (hereinafter referred to as “hIL-6/6R proteins”) and in the presence of 10% FBS, • (c) with the addition of 50 ng/ml of mIL-17A protein and in the presence of 10% FBS, • (d) with the addition of hIL-6/6R proteins at 50 ng/ml and mIL-17A protein at 50 ng/ml and in the presence of 10% FBS, • (e) in the absence of FBS, • (f) with the addition of hIL-6/6R proteins each at 50 ng/ml and in the absence of FBS, • (g) with the addition of 50 ng/ml of mIL-17A protein and in the absence of FBS, or • (h) with the addition of hIL-6/6R proteins each at 50 ng/ml and mIL-17A protein at 50 ng/ml and in the absence of FBS. […]
After the culture, the production amount of mouse IL-6 protein under each condition was quantified by an ELISA method. […]

O=c1cc(N2CCOCC2)oc2c(-c3ccccc3)cccc12 [LY294002, 2-(4-Morpholinyl)-8-phenyl-4H-1-benzopyran-4-one]
increase in the expression amount of mIL-6 protein due to the activation of IL-6 amplifier: can be suppressed
